Source: patent US20240059688A1, “CONOLIDINE ANALOGUES AS SELECTIVE ACKR3 MODULATORS FOR THE TREATMENT OF CANCER” (Luxembourg Institute of Health (LIH), priority 2020, published 2024)

Tests used:
MOR [1] = biological target: T1, MOR (Homo sapiens, UniProt P35372); experiment: NanoBiT-based β-arrestin-2 recruitment assay, MOR; format: cell-based; design: expressed in transfected cells; host or cells: U87; details: concentration range 0.15 nM to 80 μM; reference BAM22
Experimental: The ability of the different molecules to activate the four opioid receptors MOR, DOR, KOR and NOP that are known to mediate in vivo analgesic effects was tested using the NanoBiT-based β-arrestin-2 recruitment assay in a concentration range of 0.15 nM to 80 μM. For each of these receptors a reference ligand corresponding to an endogenous opioid peptide i.e. Met-enkephalin, BAM22, Dynorphin A and Nociceptin, respectively was included.
Ligand-induced β-arrestin recruitment to chemokine and opioid receptors was monitored by NanoLuc complementation assay (NanoBiT, Promega). In brief, 1.2×10^6 U87 cells were plated in 10-cm culture dishes and 48 hours later co-transfected with pNBe vectors encoding GPCRs (ACKR3, MOR, DOR, KOR, or NOP) C-terminally tagged with SmBiT and human β-arrestin-1 (arrestin-2) or β-arrestin-2 (arrestin-3) N-terminally fused to LgBiT. 48 hours post-transfection cells were harvested, incubated 25 minutes at 37° C. with Nano-Glo Live Cell substrate diluted 200-fold and distributed into white 96-well plates (5×10^4 cells per well). Ligand-induced, β-arrestin to GPCRs was evaluated with a Mithras LB940 luminometer (Berthold Technologies, running on MicroWin 2010 5.19 software (Mikrotek Laborsysteme)) for 20 minutes.
For concentration-response curves (FIG. 2), the signal recorded with a saturating concentration of full agonist for each receptor was set as 100%. […]

MOR [2] = biological target: T1, MOR; experiment: MOR calcium mobilization agonist/antagonist screen (CHO-RD-HGA16 cells); format: cell-based; design: host or cells: CHO-RD-HGA16; details: single concentration; for Emax: CHO-RD-HGA16, agonist screen, control agonist DAMGO
Experimental: (§1) Compounds were evaluated for kappa (KOR), mu (MOR), and delta (DOR) opioid receptor agonist and antagonist activity in three individual cell lines overexpressing Gαq16 (CHO-RD-HGA16, Molecular Devices) and the human kappa, mu, and delta opioid receptors, respectively. The day before the assay, cells were plated into 96-well black-walled assay plates at 30,000 cells/well in Ham's F12 supplemented with 10% fetal bovine serum, and 100 units of penicillin and streptomycin. The cells were incubated overnight at 37° C., 5% CO2. Prior to the assay, Calcium 5 dye (Molecular Devices) was reconstituted according to the manufacturer's instructions. The reconstituted dye was diluted 1:40 in pre-warmed (37° C.) assay buffer (1×HBSS, 20 mM HEPES, 2.5 mM probenecid, pH 7.4 at 37° C.). Growth medium was removed and the cells were gently washed with 100 μL of pre-warmed (37° C.) assay buffer. The cells were incubated for 45 minutes at 37° C., 5% CO2 in 200 μL of the diluted Calcium 5 dye. For the agonist screen, a single concentration of each test compound and receptor-specific controls (U69,593, DAMGO, and DPDPE for KOR, MOR, and DOR, respectively) were prepared at 10× the desired final concentration in 1% DMSO/assay buffer, aliquoted into a 96-well polystyrene plate, and warmed to 37° C. After the dye-loading incubation period, pretreatment solution was added to each well (25 μL of 9% DMSO/assay buffer) and, after 15 min, the plate was read with a FlexStation II (Molecular Devices). Calcium-mediated changes in fluorescence were monitored every 1.52 seconds over a 60 second time period, with the FlexStation II adding 50 μL of test compounds at the 19 second time point (excitation at 485 nm, detection at 525 nm). Peak kinetic reduction (SoftMax, Molecular Devices) relative fluorescence units (RFU) were used to calculate % control agonist Emax with the equation % Emax=(test compound RFU/control agonist RFU)×100. For the antagonist screens, the same procedure was followed except that the pretreatment solution consisted of the test compounds (prepared at […] the desired final concentration in 9% DMSO/assay buffer) and the FlexStation added the EC60 concentration (prepared at 10× the desired final concentration in 1% DMSO/assay buffer) of each respective control agonist. Peak RFU were used to calculate % control EC60 inhibition with the equation % inhibition=((EC60 RFU−test compound RFU)/EC60 RFU)×100. When IC50 determinations were made, the same antagonist screen procedure was followed except that cells were pretreated with 8-pt concentration-response curves of the test compounds. Peak RFU were plotted against the log of compound concentration using non-linear regression analysis to generate IC50 values (GraphPad Prism). Each test sample was analyzed in duplicate in two independent experiments.

ACKR3 = ACKR3 (Homo sapiens, UniProt P25106); experiment: Binding competition assay with CXCL12-AF647 on U87-ACKR3 cells; design: expressed in transfected cells; host or cells: U87-ACKR3 (ACKR3-negative U87 as control); details: 5 nM CXCL12-AF647, FIG. 1 section D
Source text: Dead cells were excluded using Zombie Green viability dye (BioLegend). […] Ligand binding was quantified by mean fluorescence intensity on a BD FACS Fortessa cytometer (BD Biosciences) using FACS Diva 8.01 (BD Biosciences).

DOR = DOR (Homo sapiens, UniProt P41143); experiment: DOR calcium mobilization agonist/antagonist screen (CHO-RD-HGA16 cells); format: cell-based; design: host or cells: CHO-RD-HGA16; details: single concentration; for Emax: CHO-RD-HGA16, agonist screen, control agonist DPDPE
Experimental: as §1

T1 sequence (P35372 whole entry): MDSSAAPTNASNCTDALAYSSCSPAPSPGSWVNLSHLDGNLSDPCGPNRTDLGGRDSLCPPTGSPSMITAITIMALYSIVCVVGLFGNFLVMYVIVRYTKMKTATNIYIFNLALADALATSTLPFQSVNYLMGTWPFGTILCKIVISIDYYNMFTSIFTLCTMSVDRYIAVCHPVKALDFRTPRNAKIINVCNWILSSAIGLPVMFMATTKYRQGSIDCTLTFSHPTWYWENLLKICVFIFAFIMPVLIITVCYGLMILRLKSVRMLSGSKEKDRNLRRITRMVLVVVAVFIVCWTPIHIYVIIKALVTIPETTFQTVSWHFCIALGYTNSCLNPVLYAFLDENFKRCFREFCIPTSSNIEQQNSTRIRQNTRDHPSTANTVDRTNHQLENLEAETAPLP
DOR, sequence (P41143 whole entry): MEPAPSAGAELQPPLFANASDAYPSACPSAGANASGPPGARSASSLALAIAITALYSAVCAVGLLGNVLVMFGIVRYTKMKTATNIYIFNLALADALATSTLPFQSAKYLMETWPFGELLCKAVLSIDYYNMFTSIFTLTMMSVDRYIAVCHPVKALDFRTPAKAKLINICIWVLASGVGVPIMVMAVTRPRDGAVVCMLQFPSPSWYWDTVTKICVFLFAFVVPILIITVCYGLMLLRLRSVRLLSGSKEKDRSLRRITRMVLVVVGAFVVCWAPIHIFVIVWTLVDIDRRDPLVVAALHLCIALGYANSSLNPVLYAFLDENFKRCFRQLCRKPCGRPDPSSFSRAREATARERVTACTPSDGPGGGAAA
ACKR3, sequence (P25106 whole entry): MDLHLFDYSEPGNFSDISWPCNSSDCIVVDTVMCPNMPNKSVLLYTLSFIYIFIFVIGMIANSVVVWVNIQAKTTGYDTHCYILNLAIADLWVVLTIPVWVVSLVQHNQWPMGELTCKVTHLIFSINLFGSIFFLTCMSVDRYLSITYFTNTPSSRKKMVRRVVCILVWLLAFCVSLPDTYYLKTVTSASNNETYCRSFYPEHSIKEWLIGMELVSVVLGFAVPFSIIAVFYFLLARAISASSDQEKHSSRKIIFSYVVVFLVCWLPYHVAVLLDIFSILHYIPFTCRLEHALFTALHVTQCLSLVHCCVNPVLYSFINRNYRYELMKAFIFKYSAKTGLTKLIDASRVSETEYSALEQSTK

activation of MOR (β-arrestin-2 recruitment) (MOR [1]) | Emax (MOR [2]) [%] | MOR Calcium % DAMGO Inhibition (MOR [2]; antagonist screen, vs EC60 of DAMGO) [%] | IC50 (ACKR3) [µM] | Emax (DOR) [%] | DOR Calcium % DPDPE Inhibition (DOR; antagonist screen, vs EC60 of DPDPE) [%] | Structure (SMILES)
not active | 0 | 3 | 39.9 | 0 | 22 | C/C=C1/CN2CC[C@H]1C(=O)c1[nH]c3ccccc3c1C2 [WW-1, (4E,5R)-4-ethylidene-1,4,5,7-tetrahydro-2,5-ethanoazocino[4,3-b]indol-6(3H)-one]
not active | 11 | – | 2.7 | 6 | – | C/C=C1/CN(CCCCC)CC[C@H]1C(=O)c1cc2ccccc2[nH]1 [WW-12, [(3E,4R)-3-ethylidene-1-pentylpiperidin-4-yl](1H-indol-2-yl)methanone]
